The text below walks through data of patent publication US11648254B2 (Kumquat Biosciences Inc., priority 2021, dated 2023).

A word on the IC50: it is the concentration needed to halve the response being measured.

For the first assay, the target named is SOS1 (Homo sapiens (Human), UniProt Q07889). The experiment in a line: Ras-SOS interaction assay (HTRF). It is filed as biochemical. The conditions noted are these: K-RasG13D utilized, read-out: IC50 inhibition of SOS. An excerpt: The ability of any compound of the present disclosure to reduce a Ras protein signaling output by, e.g., interfering or disrupting interaction (or binding) between SOS1 and a Ras protein can be assessed in vitro. For example, the equilibrium interaction of human SOS1 (hSOS1) with human wildtype Kras or K-Ras mutant (e.g., hK-Ras G12C mutant, or hK-RasG12C) can be assessed as a proxy or an indication for a subject compound's ability to inhibit SOS. Detection of such interaction is achieved by measuring homogenous time-resolved fluorescence resonance energy transfer (HTRF) from (i) a fluorescence resonance energy transfer (FRET) donor (e.g., antiGST-Europium) that is bound to GST-tagged K-RasG12C to (ii) a FRET acceptor (e.g., anti-6His-XL665) bound to a His-tagged hSOS1.
SOS1, sequence (Q07889 564-1049): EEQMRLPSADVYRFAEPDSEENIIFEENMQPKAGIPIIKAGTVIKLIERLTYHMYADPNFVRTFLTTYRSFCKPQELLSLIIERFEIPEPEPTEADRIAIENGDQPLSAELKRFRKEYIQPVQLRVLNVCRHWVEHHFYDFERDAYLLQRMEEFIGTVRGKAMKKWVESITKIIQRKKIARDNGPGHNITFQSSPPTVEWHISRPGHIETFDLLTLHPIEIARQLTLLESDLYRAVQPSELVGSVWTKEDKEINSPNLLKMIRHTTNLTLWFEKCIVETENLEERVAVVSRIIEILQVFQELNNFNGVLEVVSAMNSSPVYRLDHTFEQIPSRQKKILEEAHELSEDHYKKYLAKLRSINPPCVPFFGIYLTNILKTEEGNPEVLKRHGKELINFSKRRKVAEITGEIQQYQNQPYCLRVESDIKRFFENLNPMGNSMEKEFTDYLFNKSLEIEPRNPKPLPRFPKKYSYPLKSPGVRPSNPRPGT
The assay buffer can contain 5 mM HEPES pH 7.4, 150 mM NaCl, 10 mM EDTA, 1 mM DTT, 0.05% BSA, 0.0025% (v/v) Igepal and 100 mM KF. A Ras working solution is prepared in assay buffer containing typically 10 nM of the protein construct (e.g., GST-tagged hK-RasG12C) and 2 nM of the FRET donor (e.g., antiGST-Eu(K) from Cisbio, France). A SOS1 working solution is prepared in assay buffer containing typically 10 nM of the protein construct (e.g., His-hSOS1) and 10 nM of the FRET acceptor (e.g., anti-6His-XL665 from Cisbio, France). An inhibitor control solution is prepared in assay buffer containing 10 nM of the FRET acceptor without the SOS1 protein.
A fixed reaction mixture with or without test compound is transferred into a 384-well plate. Ras working solution is added to all wells of the test plate. SOS1 working solution is added to all wells except for those that are subsequently filled the inhibitor control solution. After approximately 60 min incubation, the fluorescence is measured with a M1000Pro plate reader (Tecan) using HTRF detection (excitation 337 nm, emission 1: 620 nm, emission 2: 665 nm). Compounds are tested in duplicates at different concentrations (for example, 10 μM, 2.5 μM, 0.63 μM, 0.16 μM, 0.04 μM, 0.01 μM test compound). The ratiometric data (i.e., emission 2 divided by emission 1) is used to calculate IC50 values against SOS1 using GraphPad Prism (GraphPad software).
For orientation: TR-FRET usually uses a lanthanide donor and a delayed reading to cut background.
Regarding `COc1nc2nc(CCN3CCC3)nc(N[C@H](C)c3cccc(C(F)(F)F)c3C)c2cc1C1(C#N)CC1` [Compound 427, (R)-1-(2-(2-(azetidin-1-yl)ethyl)-7-methoxy-4-((1-(2-methyl-3-(trifluoromethyl)phenyl)ethyl)amino)pyrido[2,3-d]pyrimidin-6-yl) cyclopropane-1-carbonitrile], the IC50 is less than 0.1 µM.
With `COc1nc2nc(CCN3CCC3)nc(N[C@H](C)c3cccc(C(F)(F)F)c3F)c2cc1C1(C#N)CC1` [Compound 426, (R)-1-(2-(2-(azetidin-1-yl)ethyl)-4-((1-(2-fluoro-3-(trifluoromethyl)phenyl)ethyl)amino)-7-methoxypyrido[2,3-d]pyrimidin-6-yl)cyclopropane-1-carbonitrile], the IC50 is less than 0.1 µM.
With `Cc1nc(N[C@H](C)c2cccc(C(F)F)c2F)c2cc(C3(C#N)CC3)c(OC3CCOCC3)nc2n1` [Compound 403, (R)-1-(4-((1-(3-(difluoromethyl)-2-fluorophenyl)ethyl)amino)-2-methyl-7-((tetrahydro-2H-pyran-4-yl)oxy)pyrido [2,3-d]pyrimidin-6-yl)cyclopropane-1-carbonitrile], the half-inhibitory concentration (IC50) fell in the range of 0.1 to 1 µM.
Turning to `COc1nc2ncnc(N[C@H](C)c3cccc(C(F)(F)F)c3F)c2cc1C1CCN(C)CC1` [Compound 281, (R)-N-(1-(2-fluoro-3-(trifluoromethyl)phenyl)ethyl)-7-methoxy-6-(1-methylpiperidin-4-yl)pyrido[2,3-d] pyrimidin-4-amine], the IC50 lay in the range of 0.1 to 1 µM.
For `Cc1nc(N[C@H](C)c2cccc3c2OC(C)(C)C3(F)F)c2cc(N3CCN(C(C)C)CC3)c(OCC3COC3)nc2n1` [Compound 274, (R)—N-(1-(3,3-difluoro-2,2-dimethyl-2,3-dihydrobenzofuran-7-yl)ethyl)-6-(4-isopropylpiperazin-1-yl)-2-methyl-7-(oxetan-3-ylmethoxy)pyrido[2,3-d]pyrimidin-4-amine], the IC50 fell in the range of 0.1 to 1 µM.
Regarding `COc1nc2nc(C)nc(N[C@H](C)c3cccc(C(F)(F)F)c3F)c2cc1N1CCN(C(=O)[C@H]2COCCO2)CC1` [Compound 310, ((R)-1,4-dioxan-2-yl)(4-(4-(((R)-1-(2-fluoro-3-(trifluoromethyl)phenyl)ethyl)amino)-7-methoxy-2-methylpyrido[2,3-d]pyrimidin-6-yl)piperazin-1-yl)methanone], the IC50 is less than 0.1 µM.
The same measure, in the same setting: for `Cc1nc(N[C@H](C)c2cccc(C(F)(F)F)c2F)c2cc(N3CCN(C(C)C)CC3)nnc2n1` [Compound 107, (R)—N-(1-(2-fluoro-3-(trifluoromethyl)phenyl)ethyl)-3-(4-isopropylpiperazin-1-yl)-7-methylpyrimido[4,5-c]pyridazin-5-amine] the value was less than 0.1 µM; for `COc1nc2nc(OCC3CCOCC3)nc(N[C@H](C)c3cccc(C(F)F)c3F)c2cc1C1(C#N)CC1` [Compound 275, (R)-1-(4-((1-(3-(difluoromethyl)-2-fluorophenyl)ethyl)amino)-7-methoxy-2-((tetrahydro-2H-pyran-4-yl)methoxy)pyrido[2,3-d]pyrimidin-6-yl)cyclopropane-1-carbonitrile], 0.1 to 1 µM; for `COc1nc2nc(C)nc(N[C@H](C)c3cccc(C(F)(F)F)c3F)c2cc1N1CCN(C(=O)[C@@H]2COCCO2)CC1` [Compound 382, ((S)-1,4-dioxan-2-yl)(4-(4-(((R)-1-(2-fluoro-3-(trifluoromethyl)phenyl)ethyl)amino)-7-methoxy-2-methylpyrido[2,3-d]pyrimidin-6-yl)piperazin-1-yl)methanone], less than 0.1 µM.
In the case of `Cc1nc(N[C@H](C)c2cccc(C(F)F)c2F)c2cc(N3CCN(C(C)C)CC3)nnc2n1` [Compound 108, (R)—N-(1-(3-(difluoromethyl)-2-fluorophenyl)ethyl)-3-(4-isopropylpiperazin-1-yl)-7-methylpyrimido[4,5-c]pyridazin-5-amine], the IC50 was less than 0.1 µM.
Turning to `Cc1nc(N[C@H](C)c2cccc(C(F)F)c2F)c2cc(S(=O)(=O)C3CCN(C)CC3)c(C)nc2n1` [Compound 141, (R)-N-(1-(3-(difluoromethyl)-2-fluorophenyl)ethyl)-2,7-dimethyl-6-((1-methylpiperidin-4-yl)sulfonyl)pyrido[2,3-d]pyrimidin-4-amine], the half-maximal inhibitory concentration (IC50) was less than 0.1 µM.
As for `COc1nc2nc(C)nc(N[C@H](C)c3cccc(C(F)(F)C4CCN(C(C)C)CC4)c3F)c2cc1C1CCN(C)CC1` [Compound 424, (R)-N-(1-(3-(difluoro(1-isopropylpiperidin-4-yl)methyl)-2-fluorophenyl)ethyl)-7-methoxy-2-methyl-6-(1-methylpiperidin-4-yl)pyrido[2,3-d]pyrimidin-4-amine], the IC50 was less than 0.1 µM.
Same read-out and setting: for `COc1nc2nc(C)nc(N[C@H](C)c3cccc(C(F)F)c3F)c2cc1C1(C#N)CCN(Cc2ccccc2)CC1` [Compound 140, (R)-1-benzyl-4-(4-((1-(3-(difluoromethyl)-2-fluorophenyl)ethyl)amino)-7-methoxy-2-methylpyrido[2,3-d]pyrimidin-6-yl)piperidine-4-carbonitrile] the value was 0.1 to 1 µM.
As for `Cc1nc(N[C@H](C)c2cccc(C(F)F)c2F)c2cc(C3(C#N)CC3)c(NC3COC3)nc2n1` [Compound 225, (R)-1-(4-((1-(3-(difluoromethyl)-2-fluorophenyl)ethyl)amino)-2-methyl-7-(oxetan-3-ylamino)pyrido[2,3-d]pyrimidin-6-yl)cyclopropane-1-carbonitrile], the half-maximal inhibitory concentration (IC50) lay in the range of 0.1 to 1 µM.
Regarding `COc1nc2ncnc(N[C@H](C)c3cccc(C(F)(F)F)c3F)c2cc1C1(C#N)CCN(C(C)C)CC1` [Compound 280, (R)-4-(4-((1-(2-fluoro-3-(trifluoromethyl)phenyl)ethyl)amino)-7-methoxypyrido[2,3-d]pyrimidin-6-yl)-1-isopropylpiperidine-4-carbonitrile], the IC50 was in the range of 0.1 to 1 µM.
As for `Cc1nc(N[C@H](C)c2cccc(C(F)(F)F)c2C)c2cc(N3CCN(C(C)C)CC3)c(Cl)nc2n1` [Compound 201, (R)-7-chloro-6-(4-isopropylpiperazin-1-yl)-2-methyl-N-(1-(2-methyl-3-(trifluoromethyl)phenyl)ethyl)pyrido[2,3-d]pyrimidin-4-amine], the 50% inhibitory concentration (IC50) is less than 0.1 µM.
The same measure, in the same setting: for `COc1nc2nc(C)nc(N[C@H](C)c3cccc(C(F)(F)CCC4CN(C(=O)OC(C)(C)C)C4)c3F)c2cc1C1(C#N)CC1` [Compound 208, tert-butyl (R)-3-(3-(3-(1-((6-(1-cyanocyclopropyl)-7-methoxy-2-methylpyrido[2,3-d]pyrimidin-4-yl)amino)ethyl)-2-fluorophenyl)-3,3-difluoropropyl)azetidine-1-carboxylate] the value was 0.1 to 1 µM; for `Cc1nc(N[C@H](C)c2cccc(C(F)F)c2F)c2cc(C3(C#N)CC3)c(NC3CCOCC3)nc2n1` [Compound 228, (R)-1-(4-((1-(3-(difluoromethyl)-2-fluorophenyl)ethyl)amino)-2-methyl-7-((tetrahydro-2H-pyran-4-yl)amino)pyrido[2,3-d]pyrimidin-6-yl)cyclopropane-1-carbonitrile], 0.1 to 1 µM.
On to `COc1nc2ncnc(N[C@H](C)c3cccc(C(F)(F)CO)c3F)c2cc1N1CCS(=O)(=O)CC1` [Compound 279, (R)-4-(4-((1-(3-(1,1-difluoro-2-hydroxyethyl)-2-fluorophenyl)ethyl)amino)-7-methoxypyrido[2,3-d]pyrimidin-6-yl)thiomorpholine 1,1-dioxide], for which the IC50 fell in the range of 0.1 to 1 µM.
Take `Cc1nc(N[C@H](C)c2cccc(C(F)F)c2F)c2cc(C3(C(F)F)CC3)c(OC3COC3)nc2n1` [Compound 186, (R)—N-(1-(3-(difluoromethyl)-2-fluorophenyl)ethyl)-6-(1-(difluoromethyl)cyclopropyl)-2-methyl-7-(oxetan-3-yloxy)pyrido[2,3-d]pyrimidin-4-amine]: the 50% inhibitory concentration (IC50) is less than 0.1 µM.
Regarding `COc1nc2nc(C)nc(N[C@H](C)c3cc(F)cc(C(F)F)c3F)c2cc1C1CCS(=O)(=O)CC1` [Compound 144, (R)-4-(4-((1-(3-(difluoromethyl)-2,5-difluorophenyl)ethyl)amino)-7-methoxy-2-methylpyrido[2,3-d]pyrimidin-6-yl)tetrahydro-2H-thiopyran 1,1-dioxide], the IC50 fell in the range of 0.1 to 1 µM.

The same assay, now with this note: K-RasG13D, read-out: IC50 value against SOS1.
`COc1nc2nc(CCN3CCC3)nc(N[C@H](C)c3cccc(C(F)(F)F)c3C)c2cc1C1(C#N)CC1` [Compound 427, (R)-1-(2-(2-(azetidin-1-yl)ethyl)-7-methoxy-4-((1-(2-methyl-3-(trifluoromethyl)phenyl)ethyl)amino)pyrido[2,3-d]pyrimidin-6-yl) cyclopropane-1-carbonitrile]: the IC50 is less than 0.05 µM.
On to `COc1nc2nc(C)nc(N[C@H](C)c3cccc(C(F)(F)F)c3F)c2cc1N1CCN(C(=O)[C@@H]2COCCO2)CC1` [Compound 382, ((S)-1,4-dioxan-2-yl)(4-(4-(((R)-1-(2-fluoro-3-(trifluoromethyl)phenyl)ethyl)amino)-7-methoxy-2-methylpyrido[2,3-d]pyrimidin-6-yl)piperazin-1-yl)methanone], for which the IC50 is less than 0.05 µM.
Same read-out and setting: the value for `COc1nc2nc(C)nc(N[C@H](C)c3cccc(C(F)(F)C4CCN(C(C)C)CC4)c3F)c2cc1C1CCN(C)CC1` [Compound 424, (R)-N-(1-(3-(difluoro(1-isopropylpiperidin-4-yl)methyl)-2-fluorophenyl)ethyl)-7-methoxy-2-methyl-6-(1-methylpiperidin-4-yl)pyrido[2,3-d]pyrimidin-4-amine] was less than 0.05 µM.
Turning to `Cc1nc(N[C@H](C)c2cccc(C(F)(F)F)c2C)c2cc(N3CCN(C(C)C)CC3)c(Cl)nc2n1` [Compound 201, (R)-7-chloro-6-(4-isopropylpiperazin-1-yl)-2-methyl-N-(1-(2-methyl-3-(trifluoromethyl)phenyl)ethyl)pyrido[2,3-d]pyrimidin-4-amine], the IC50 is less than 0.05 µM.
